Reference: patent US5922573A, “IL-1 receptor antagonists with enhanced inhibitory activity” (Dompe' S.p.A., priority 1994, dated 1999)

Legend:
IL-1RII = target: T1, IL-1RII (Homo sapiens, UniProt P27930); test: Binding to IL-1RII: displacement of 125I-IL-1β on cells expressing IL-1RII selectively; conditions: displacement of 125I IL-1β equilibrium binding on 10^6 cells
T1 construct: cells which express IL-1RII selectively (e.g. Burkitt's human lymphoma RAJI clone 1H7); endogenous in cells; host or cells: RAJI clone 1H7 (Burkitt's human lymphoma)
T1 sequence (P27930 14-398): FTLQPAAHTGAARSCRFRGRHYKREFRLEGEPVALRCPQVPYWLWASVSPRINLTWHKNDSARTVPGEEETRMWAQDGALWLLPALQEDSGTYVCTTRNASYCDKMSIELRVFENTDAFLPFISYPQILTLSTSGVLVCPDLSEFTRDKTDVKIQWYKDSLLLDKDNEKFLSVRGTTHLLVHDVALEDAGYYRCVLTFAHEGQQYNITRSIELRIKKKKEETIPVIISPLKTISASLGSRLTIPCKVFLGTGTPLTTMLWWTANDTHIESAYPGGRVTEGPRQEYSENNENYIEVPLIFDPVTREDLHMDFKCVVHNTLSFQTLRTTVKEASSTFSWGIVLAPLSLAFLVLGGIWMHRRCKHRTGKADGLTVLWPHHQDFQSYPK
Method: (§1) The inhibitory activity of the improved IL-1ra mutants is measured in receptor binding assays, using IL-1ra as the reference standard. Cells which express IL-1RI selectively (e.g. the murine thymoma clone EL4-6.1) and cells which express IL-1RII selectively (e.g. Burkitt's human lymphoma RAJI clone 1H7) are chosen as target cells. The number of receptors per cell and the binding affinity (Kd) in both the lines are calculated from saturation curves obtained by incubating the cells (10^6 cells/test tube in a final volume of 0.1 ml of culture medium with NaN3) with increasing doses of IL-1β labelled with 125I in the presence or absence of a 500-fold molar excess of unlabelled IL-1β (for calculating non-specific binding, generally always less than 5-10%) for the optimum times and at the optimum temperatures for attaining equilibrium (generally 2 hours at room temperature) (Scapigliati et al. FEBS Lett. 243: 394, 1989). To calculate the inhibition activity, tests are conducted by incubating the cells with a concentration of radiolabelled IL-1β corresponding to approximately half of the Kd in the absence or in the presence of stepped doses of IL-1ra (reference standard) or of the improved mutant.
(§2) The improved inhibitory activity of the mutants is determined by calculating the shift of the inhibition curve towards the lower doses when compared with the curve of IL-1ra.

human osteosarcoma MG-63 = test: Inhibition of IL-1β-induced IL-6 production in MG-63 cells; assay type: cell-based; conditions: MG-63 cells stimulated with IL-1 around 0.3 ng/ml, 48 hours
Method: The quantity of IL-6 in the culture supernatants is measured by a commercial ELISA assay or determined in the biological assay of proliferation of 7TD1 cells.

IL-1RI = target: T2, IL-1RI (Mus musculus, UniProt P13504); test: Binding to IL-1RI: displacement of 125I-IL-1β on cells expressing IL-1RI selectively; conditions: displacement of 125I IL-1β equilibrium binding on 10^6 cells; murine thymoma clone EL4-6.1
T2 construct: Cells which express IL-1RI selectively (e.g. the murine thymoma clone EL4-6.1); endogenous in cells; host or cells: EL4-6.1 (murine thymoma clone)
T2 sequence (P13504 20-576): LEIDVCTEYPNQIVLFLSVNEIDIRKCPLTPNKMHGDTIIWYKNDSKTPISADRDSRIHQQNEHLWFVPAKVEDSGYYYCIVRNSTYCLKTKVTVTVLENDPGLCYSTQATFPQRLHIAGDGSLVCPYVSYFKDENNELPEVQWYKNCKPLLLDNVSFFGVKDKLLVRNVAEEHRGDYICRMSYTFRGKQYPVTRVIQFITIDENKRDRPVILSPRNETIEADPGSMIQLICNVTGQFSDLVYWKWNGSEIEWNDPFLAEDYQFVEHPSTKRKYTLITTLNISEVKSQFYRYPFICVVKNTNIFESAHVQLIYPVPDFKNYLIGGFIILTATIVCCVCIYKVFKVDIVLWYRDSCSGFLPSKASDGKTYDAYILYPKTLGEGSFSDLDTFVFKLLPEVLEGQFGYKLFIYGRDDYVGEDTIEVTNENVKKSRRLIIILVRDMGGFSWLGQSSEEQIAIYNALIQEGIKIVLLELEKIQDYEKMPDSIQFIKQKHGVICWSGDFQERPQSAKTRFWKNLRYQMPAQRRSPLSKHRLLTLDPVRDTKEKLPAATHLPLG
Method: as §1, §2

murine thymocytes = test: Inhibition of IL-1β-induced proliferation of murine thymocytes; assay type: cell-based, mouse; conditions: for Thymocyte proliferation to IL-1β 30 pg/ml, ID50: murine thymocytes; for Thymocyte proliferation to IL-1β 300 pg/ml, ID50: C3H/HeJ thymocytes with PHA, 72 hours
Method: 1. Proliferation of murine thymocytes: normal thymocytes are obtained by breaking up thymus glands of C3H/HeJ mice (resistant to bacterial endotoxin) aged 4-8 weeks. The thymocytes (5×10^5 cells/well of Cluster^96 plates) are incubated for 72 hours in RPMI-1640 culture medium with addition of antibiotics, L-glutamine, 2-ME, HEPES and 5% foetal calf serum at 37° C. in air with 5% CO2. […] To determine the proliferation of the thymocytes induced by IL-1, at the end of 72 hours of incubation […] of culture medium containing […] of tritiated thymidine are added to each well. After another 18 hours, the cells from each well are harvested onto small glass-fibre disks and the radioactivity incorporated (proportional to the proliferation of the cells) is measured with a β-counter. For determination of the inhibitory capacity of the improved mutants of IL-1ra , the proliferation of the thymocytes is measured in response to the minimum dose of IL-1 that induces optimum proliferation (generally around 0.3 ng/ml) in the absence or in the presence of stepped doses of IL-1ra (control standard) or of the improved mutants. The improved inhibitory activity of the mutants is determined by calculating the shift of the inhibition curve towards the lower doses when compared with the curve of IL-1ra .

IL-1β [1] = test: Inhibition of IL-1β-induced neutrophilia in vivo; conditions: neutrophilia induced in the mouse by 150 ng/kg IL-1β; antagonist intraperitoneally at -15 min, 0, +15 min; read four hours after treatment
Method: 2. Induction of neutrophilia: C3H/HeJ mice or mice of some other strain (3 mice/test group) receive stepped doses of IL-1β with a single intraperitoneal administration. The increase of circulating neutrophils induced by IL-1 is evaluated by cytofluorimetry four hours after the treatment.

IL-1β [2] = test: Inhibition of IL-1β-induced hypoglycaemia in vivo; conditions: hypoglycaemia induced in the mouse by 5.0 μg/kg IL-1β, intraperitoneal, serum glucose after two hours
Method: 1. Induction of hypoglycaemia: C3H/HeJ mice or mice of some other strain (3-5 mice/test group) receive stepped doses of IL-1β by intraperitoneal administration. After two hours the animals are killed and the blood is collected for preparation of the serum. The serum glucose content is determined after reaction with glucose oxidase in a commercial calorimetric assay.

[3] = Burkitt's human lymphoma RAJI clone 1H7

Substance | Binding to IL-1RII, ID50 (IL-1RII; [3]) | IL-6 production, ID50 (human osteosarcoma MG-63) | Binding to IL-1RI, ID50 (IL-1RI) | Thymocyte proliferation to IL-1β 30 pg/ml, ID50 (murine thymocytes) | Thymocyte proliferation to IL-1β 300 pg/ml, ID50 (murine thymocytes) | Neutrophilia, ID100 (IL-1β [1]) | Hypoglycaemia, ID50 (IL-1β [2]) | Binding to IL-1RII, ID50 (IL-1RII; RAJI clone 1H7, unit as printed in this cell)
IL-1ra: wild type IL-1 receptor antagonist, a mature protein of 152 amino acids, used as reference standard [reference compound] | 19.60 nM | 3.60 ng/mL | 0.34 nM | 0.813 ng/mL | 4.10 ng/mL | 0.225 mg/kg | 0.968 mg/kg | 
MILRA-2: IL-1ra mutant T109→A (alanine in position 109 of the mature protein) |  | 1.12 ng/mL | 0.19 nM |  | 1.75 ng/mL |  |  | 1.8 nM
MILRA-3: IL-1ra double mutant N91/T109→R/A | 70.70 nM |  | 0.22 nM | 0.285 ng/mL |  |  | 0.076 mg/kg | 
MILRA-1: IL-1ra mutant N91→R (arginine in position 91 of the mature protein) | 13.20 nM | 0.62 ng/mL | 0.17 nM |  | 1.78 ng/mL | < 0.0225 mg/kg | 0.128 mg/kg | 
